According to US10226041B2, “Compositions and methods for improving the quality of processed sperm” (Inguran, LLC, priority 2011, dated 2019):
“And” between values parts separate entries of the source, which are not always exact repeats. Equal values may be shown once.

What was measured:
sex-sorted sperm = test: DNA fragmentation of sex-sorted sperm (Halomax for animals kit); type: cell-based, cattle
Procedure: The levels of DNA fragmentation were also screened using a DNA fragmentation ‘Halomax for animals’ kit (Halotech DNA, sl, Madrid, Spain) to determine if there were any advantageous effects of using the antioxidants during the staining and processing of sex-sorted sperm. Two different breeds of cattle, Jersey and Holstein, were examined using two different concentrations of antioxidant, 0.25 mg/ml and 0.5 mg/ml of vitamin B12 with the 3 step protocol adding the same concentration of OSR during cell staining, in the collection catch fluid and prior to cryopreservation. One of the bulls was used to evaluate the effect of addition or omission of OSR at one or more of the sperm sorting steps. Motility and the level of DNA fragmentation were both recorded.

[1] = test system: slaughterhouse oocytes fertilized with sex sorted sperm; test: IVF: development of eggs fertilized with OSR treated sex sorted sperm; type: cell-based, bovine; settings: 3 step
Procedure: 1. Oocyte Collection. Collect slaughterhouse oocytes, wash 1× with about 3 mL Hepes washing media and with 1× with TCM-199 (Invitrogen, Carlsbad, Calif.)+10% Fetal Bovine Serum (FBS). Culture in maturation media for 22 hrs in a CO2 incubator at 38.5° C. In one embodiment, the maturation media contains TCM-199, FBS, pyruvate, chorionic gonadotropin (e.g., Chorulon (Intervet, Summit N.J.)), follicle stimulating hormone (FSH) (e.g., Folltropin (Bioniche, Belleville, Canada)), estradiol, and at least one antibiotic. In a further embodiment, Amikacin (Sigma-Aldrich, St. Louis, Mo.) can be used as the antibiotic. In another embodiment, the maturation media may also comprise luteinizing hormone.
2. In Vitro Fertilization. Trim away cumulus cells from matured oocytes. Transfer them to a fertilization dish and return to the CO2 incubator. Thaw frozen semen straws using standard procedures, centrifuge in […], of Pure Sperm gradient (Nidacon, Molndal, Sweden), or a percoll or similar gradient at 2500 RPM for 10 minutes to remove egg components, glycerol and other debris. Remove supernatant, leaving a loose pellet of live sperm. Combine pellets using a small amount of fertilization media and repellet at 1500 RPM for 3 minutes. Carefully remove supernatant. Then gently mix the pellet. After determining the desired insemination dose, inseminate the oocytes by adding sperm to the pellet, then culture in a dish and return to the CO2 incubator for about 18-22 hours.
3. In Vitro Culture. Remove presumptive zygotes from the fertilization dish and transfer into a sterile 1.5 mL eppendorf tube. Allow zygotes to form a loose pellet and remove excess media to form a 1:1 ratio of pellet and solution. Rinse the eppendorf tube with TCM-199, place contents into a dish and wash with BSA media. Then culture presumptive zygotes (discard disfigured oocytes, as well as oocytes with yellow colored cytoplasm or vacuolated cytoplasm) in a dual gas incubator (5% CO2, 5% O2) at 38.5° C. for about 48 hours.
4. Co-Culture. Transfer cleaved zygotes to co-culture dishes comprising the cumulus cells from the mature oocytes and FBS media topped with mineral oil, and incubate in a CO2 incubator at 38.5° C. until needed.
An experiment was designed to test the effect of OSR treated sperm cells on the development of eggs fertilized with those sperm cells. In this experiment, bull semen from two bulls was sex sorted with flow cytometry, with vitamin B12 present at equal concentrations in the media used to stain the sperm cells, in the catch fluid of the collecting vessel and in the cryoprotectant extender prior to freezing the sex sorted sample (3 step). For each bull, three different concentrations of vitamin B12 were tested: 0.05 mg/ml, 0.15 mg/ml and 0.25 mg/ml. The control samples were not treated with vitamin B12.
Slaughterhouse oocytes were collected and washed 1× with about 3 mL Hepes washing media and with 1× with TCM-199+10% FBS. The oocytes were then cultured in maturation media for 22 hrs in a CO2 incubator at 38.5° C. Cumulus cells were trimmed away from matured oocytes, transferred to a fertilization dish, and returned to the CO2 incubator.
Frozen semen straws were thawed using standard procedures and centrifuged in […], of Pure Sperm gradient at 2500 RPM for 10 minutes in order to remove egg, glycerol and other debris. The supernatant was removed, leaving a loose pellet of live sperm. Pellets were combined using a small amount of fertilization media and repelleted at 1500 RPM for 3 minutes. The supernatant was then carefully removed and the pellet gently mixed. After determining the desired insemination dose, the matured oocytes were then inseminated by adding sperm to the pellet, cultured in a dish and returned to the CO2 incubator for about 18-22 hours.
Presumptive zygotes were removed from the fertilization dish and transferred into a sterile 1.5 ml eppendorf tube. […]

[2] = 0.05 mg/ml, Table 4 replicates, Bulls A, B
[3] = 0.5 mg/ml, Table 5 Total/Avg per bull (A Holstein, B Jersey), Holstein bull
[4] = 0.5 mg/ml, Table 5 Total/Avg per bull (A Holstein, B Jersey), Jersey bull
[5] = 0.5 mg/ml, Table 5 replicates, Bull A (Holstein), Bull B (Jersey), Holstein bull
[6] = 0.5 mg/ml, Table 5 replicates, Bull A (Holstein), Bull B (Jersey), Jersey bull

## vitamin B12
sex-sorted sperm; 0 hr, 1 step-stain (+−−), Bull C (Jersey), Trial 1
  % DNA Fragmentation: 0.7%
sex-sorted sperm; 0 hr, 1 step-stain (+−−), Bull C (Jersey), Trial 2
  % DNA Fragmentation: 0.7%
sex-sorted sperm; 0 hr, 2 step-stain (++−), Bull C (Jersey), Trial 1
  % DNA Fragmentation: 0.3%
sex-sorted sperm; 0 hr, 2 step-stain (++−), Bull C (Jersey), Trial 2
  % DNA Fragmentation: 0.3%
sex-sorted sperm; 0 hr, 3 step (+++), Bull C (Jersey), Trial 1
  % DNA Fragmentation: 0%
sex-sorted sperm; 0 hr, 3 step (+++), Bull C (Jersey), Trial 2
  % DNA Fragmentation: 0.3%
sex-sorted sperm; 0 hr, vitamin B12 0.5 mg/ml, 3 step, Bull A (Jersey)
  % DNA Fragmentation: 0.3%
sex-sorted sperm; 0 hr, vitamin B12 0.5 mg/ml, 3 step, Bull B (Holstein)
  % DNA Fragmentation: 0.3%
sex-sorted sperm; 24 hr, 1 step-stain (+−−), Bull C (Jersey), Trial 1
  % DNA Fragmentation: 1%
sex-sorted sperm; 24 hr, 1 step-stain (+−−), Bull C (Jersey), Trial 2
  % DNA Fragmentation: 1%
sex-sorted sperm; 24 hr, 2 step-stain (++−), Bull C (Jersey), Trial 1
  % DNA Fragmentation: 1%
sex-sorted sperm; 24 hr, 2 step-stain (++−), Bull C (Jersey), Trial 2
  % DNA Fragmentation: 0.7%
sex-sorted sperm; 24 hr, 3 step (+++), Bull C (Jersey), Trial 1
  % DNA Fragmentation: 0.3%
sex-sorted sperm; 24 hr, 3 step (+++), Bull C (Jersey), Trial 2
  % DNA Fragmentation: 0.3%
sex-sorted sperm; 24 hr, vitamin B12 0.5 mg/ml, 3 step, Bull A (Jersey)
  % DNA Fragmentation: 0.7%
sex-sorted sperm; 24 hr, vitamin B12 0.5 mg/ml, 3 step, Bull B (Holstein)
  % DNA Fragmentation: 0.3%
sex-sorted sperm; 48 hr, 1 step-stain (+−−), Bull C (Jersey), Trial 1
  % DNA Fragmentation: 1.3%
sex-sorted sperm; 48 hr, 1 step-stain (+−−), Bull C (Jersey), Trial 2
  % DNA Fragmentation: 1%
sex-sorted sperm; 48 hr, 2 step-stain (++−), Bull C (Jersey), Trial 1
  % DNA Fragmentation: 1%
sex-sorted sperm; 48 hr, 2 step-stain (++−), Bull C (Jersey), Trial 2
  % DNA Fragmentation: 0.7%
sex-sorted sperm; 48 hr, 3 step (+++), Bull C (Jersey), Trial 1
  % DNA Fragmentation: 0.3%
sex-sorted sperm; 48 hr, 3 step (+++), Bull C (Jersey), Trial 2
  % DNA Fragmentation: 0.7%
sex-sorted sperm; 48 hr, vitamin B12 0.5 mg/ml, 3 step, Bull A (Jersey)
  % DNA Fragmentation: 1.3%
sex-sorted sperm; 48 hr, vitamin B12 0.5 mg/ml, 3 step, Bull B (Holstein)
  % DNA Fragmentation: 0.7%
[1]; 0.05 mg/ml, Table 4 Total/Avg per bull (A, B)
  4-2C, Total/Avg: 66 and 63
[1]; [2]
  4-2C (zygotes at 2 cell to 4 cell transition 48 hours after IVF): 20 (2×) and 26 and 18 and 23 and 22
  8C % (zygotes having 8 cells 48 hours after IVF): 3.4% and 9.5% and 11.7% and 44.4% and 29.3% and 29.0%
  8C (zygotes with 8 cells 48 hours after IVF): 3 and 9 and 11 and 40 and 27 (2×)
  % Clv (percent cleaved 48 hours after IVF): 26.4% and 36.8% and 33.0% and 64.4% and 54.3% and 52.7%
  Blast % (cultured zygotes resulting in blastocyst formation): 1.1% and 2.1% and 4.3% and 21.1% and 16.3% and 22.6%
  C1 (expanded, hatching and hatched blastocysts 7 days after IVF): 0 (2×) and 1 and 2 and 4 and 5
  C1− (blastocysts 7 days after IVF): 0 (2×) and 3 (2×) and 4 and 2
  C2 (early blastocysts and compact morulas 7 days after IVF): 1 (3×) and 13 (2×) and 9
  Hatch # (embryos shedding the zona, 8.5 days after IVF): 0 and 1 (2×) and 9 and 7 and 8
  Hatch % (embryos that shed the zona): 0.0% and 50.0% and 25.0% and 47.4% and 46.7% and 38.1%
  Total Embs (total number of blastocysts): 1 and 2 and 4 and 19 and 15 and 21
[1]; [3]
  4-2C, Total/Avg: 72
  8C %, Total/Avg: 35.1%
  8C, Total/Avg: 99
  C1−, Total/Avg: 17
  C2, Total/Avg: 18
  Hatch #, Total/Avg: 16
  Total Embs, Total/Avg: 41
[1]; [4]
  4-2C, Total/Avg: 86
  8C %, Total/Avg: 35.4%
  8C, Total/Avg: 104
  C1−, Total/Avg: 22
  C2, Total/Avg: 13
  Hatch #, Total/Avg: 20
  Total Embs, Total/Avg: 52
[1]; [5]
  4-2C (zygotes at 2 cell to 4 cell transition 48 hours after IVF): 25 and 29 and 18
  8C % (zygotes having 8 cells 48 hours after IVF): 36.2% and 31.6% and 37.6%
  8C (zygotes with 8 cells 48 hours after IVF): 34 and 30 and 35
  % Clv (percent cleaved 48 hours after IVF): 62.8% and 62.1% and 57.0%
  Blast % (cultured zygotes resulting in blastocyst formation): 6.4% and 15.8% and 21.5%
  C1 (expanded, hatching and hatched blastocysts 7 days after IVF): 0 and 1 and 5
  C1− (blastocysts 7 days after IVF): 3 and 7 (2×)
  C2 (early blastocysts and compact morulas 7 days after IVF): 3 and 7 and 8
  Hatch # (embryos shedding the zona, 8.5 days after IVF): 1 and 4 and 11
  Hatch % (embryos that shed the zona): 16.7% and 26.7% and 55.0%
  Total Embs (total number of blastocysts): 6 and 15 and 20
[1]; [6]
  4-2C (zygotes at 2 cell to 4 cell transition 48 hours after IVF): 40 and 31 and 15
  8C % (zygotes having 8 cells 48 hours after IVF): 34.0% and 25.3% and 46.5%
  8C (zygotes with 8 cells 48 hours after IVF): 34 and 24 and 46
  % Clv (percent cleaved 48 hours after IVF): 74.0% and 57.9% and 61.6%
  Blast % (cultured zygotes resulting in blastocyst formation): 11.0% and 24.2% and 18.2%
  C1 (expanded, hatching and hatched blastocysts 7 days after IVF): 4 and 5 and 8
  C1− (blastocysts 7 days after IVF): 6 and 11 and 5
  C2 (early blastocysts and compact morulas 7 days after IVF): 1 and 7 and 5
  Hatch # (embryos shedding the zona, 8.5 days after IVF): 5 and 6 and 9
  Hatch % (embryos that shed the zona): 45.5% and 26.1% and 50.0%
  Total Embs (total number of blastocysts): 11 and 23 and 18
